The test system of one series is RhoB promoter. Briefly: RhoB promoter transcriptional activity in H-Ras/3T3 cells. It is filed as cell-based. The settings on record: treated 12 hours (FIG. 6B). An excerpt:
The cell lysates were processed as in FIGS. 5A-5D. […] The cell lysates were processed as in FIGS. 5A-5D. […] The cell lysates were processed as in FIGS. 5A-5D. Gene Constructs and RhoB Promoter Transcriptional Activity Assay. Constitutively active H-Ras61L, K-RasV12, N-RasV12, and dominant negative […]-Ras were kind gifts from Dr. Channing Der (University of North Carolina) (Khosravi-Far, R. et al., Mol Cell Biol, 1995, 15:6443-53; Quilliam, L. A. et al., Mol Cell Biol, 1994, 14:1113-21). Wild-type RhoA and RhoB were subcloned into hemaglutinin (HA)-tagged pcDNA3 (INVITROGEN). The orientation and the sequences of these genes were confirmed by DNA sequencing facilities at the H. Lee Moffitt Cancer Center, Tampa, Fla. RhoB promoter construct pGEI was kindly provided by Dr Y. Monden (Banyu Tsukuba Research, Japan) (Nakamura et al., 1996). pCMV-β-galactosidase vector was purchased from INVITROGEN. The plasmid containing CA-, DN-PI3K, Mek and Akt were kindly provided by Dr. Julie Y. Djeu (H. Lee Moffitt Cancer and Research Institute, Tampa, Fla.) (Jiang, K. et al., Blood, 2003, 101:236-44). β-galactosidase activity and luciferase assay kits were purchased from PROMEGA Corporation, Madison, Wis. […] The RhoB promoter transcriptional activity was determined by dividing the luciferase/β-Gal values from oncogene-transfected cells by those from pcDNA3-transfected cells. […]

The next series concerns H-Ras/NIH3T3 cells. Briefly: 5-FU-induced apoptosis (Annexin V, flow cytometry) in H-Ras-transformed NIH3T3 cells. It is filed as cell-based. The method, then: Apoptosis Assay. Cells were collected by trypsinization, washed in wash buffer and stained with Annexin V and 7-AAD according to manufacturer's recommendation (PharMingen, San Diego, Calif.). Data acquisition and analysis was performed by the Flow Cytometry Core Facility at the H. Lee Moffitt Cancer Center (Tampa, Fla.). All the samples were performed in duplicate and a representative of 3 independent experiments were reported here.
For orientation: In flow cytometry, cells or beads pass a laser one at a time.

The next series concerns NIH3T3 cells. Put plainly: Cell proliferation, parental NIH3T3. The series is classed as cell-based. Particulars: non-transformed NIH3T3, 0-96 hours. The method, then: Cell Proliferation. Cells were collected and examined for cell number by trypan blue exclusion and hemocytometer counting under microscope at 0 h, 24 h, 48 h, 72 h and 96 h. All the samples were performed in triplicate and the averages of 3 independent experiments were reported.

The next series deals with PANC-1 cells. Briefly: Migration through collagen type I coated transfilters, PANC-1 cells. The settings on record: PANC-1 cells (FIG. 8C). It is filed as cell-based, human. As to the method:
Parental NIH3T3 (FIG. 8A) were transiently transfected with pcDNA3 vector control, H-Ras61L, CA-PI3K, or CA-Akt in the presence or absence of RhoA or RhoB or pcDNA3 for 36 hours. The cells were then split and cultured for another 4 weeks. The plates were examined for focus formation by staining. H-Ras/3T3 cells (FIG. 8B) and PANC-1 cells (FIG. 8C) were transiently transfected with pcDNA3 vector control, CA-Akt, or WT-Akt in the presence or absence of RhoA, RhoB, or pcDNA3 for 36 hours. The cells were then split and analyzed for their migration capabilities through collagen type I coated transfilters as described in the Materials and Methods section. NIH3T3 cells (FIGS. 8D and 8E) were transiently transfected with pcDNA3 vector control, H-Ras61L, CA-Akt, or WT-Akt in the presence or absence of RhoA, RhoB, or pcDNA3 for 36 hours. The monolayers were then scratched with a 20 μl pipette tip and micro-photographed at the time points indicated for analyzing their capability to migrate into and fill the wounded area.

As to `O=c1[nH]cc(F)c(=O)[nH]1` [5-FU, 5-fluorouracil], in the series on RhoB promoter, the “induction of RhoB promoter activity” value is given as “little effect”. In addition, the apoptosis with H-Ras/NIH3T3 cells (H-Ras-transformed NIH3T3, 5-FU 2.0 μM 48 hrs (FIG. 4B)) was 16-18%.
In the case of “RhoB: low molecular weight GTPase; wild-type RhoB subcloned into HA-tagged pcDNA3 and ectopically expressed by transfection”, the growth rate entry in the series on NIH3T3 cells is reported as “not affected”. In addition, in the series with H-Ras/NIH3T3 cells (H-Ras-transformed NIH3T3, transfected 24 hrs then 5-FU 48 hrs, control 16%), the “percent of apoptosis induced by 5-FU after transfection” value was 37%. Further, in the series on PANC-1 cells, the “ability to migrate through collagen type I” value is reported as “dramatically hindered”.
Regarding “RhoA: closely related family member sharing 86% sequence identity with RhoB; wild-type, in HA-tagged pcDNA3, transfected as control”, the growth rate result in the series on NIH3T3 cells is listed as “enhanced the rate of growth”. In the series on PANC-1 cells, the “ability to migrate through collagen type I” value is on record as “migrated”.

These data come from patent US7629310B2, “RhoB as a suppressor of cancer cell growth, cell transformation, and metastasis” (University of South Florida, priority 2000, dated 2009).
